According to patent US12686668B2, “Leukotriene synthesis inhibitors” (Naegis Pharmaceuticals Inc., priority 2019, dated 2026):

Experiments:
[1] = test system: LTC4 production in MC/9 cells; experiment: MC/9 HPLC assay, inhibition of LTC4 production; format: cell-based; conditions: Mus musculus; for inhibition at 1 µM: MC9, Table 2 column 3, no concentration in head (1 μM according to b732), read-out: % Inhibition LTC4; for inhibition at 3 µM: MC9, 3 μM, A23187 stimulated
Description: (§1) Cultured MC/9 cells (3×10^6 cells) in 1 mL HBSS were pre-incubated with a series of concentrations of compound solubilized in DMSO for 30 minutes. Production of leukotrienes were stimulated with the addition of 1 μM calcium ionophore (A23187), diluted from a 4 mM DMSO stock in HBSS, and incubated at room temperature for 20 minutes. The reaction was stopped with the addition of 500 μL of methanol containing 20 ng/mL prostaglandin B2 as an internal standard. Samples were collected and stored at −20° C. at least 2 hr or overnight before centrifuged at 13,000 rpm for 15 minutes and loaded onto C18 SEP-PAK columns (Canadian Lifesciences IS12000) for solid phase extraction. The leukotrienes were analyzed by HPLC using an ACE C18 column (4.5 mm×150 mm, 5 m) eluted with acetonitrile/methanol/water mixture with H3PO4, pH 3.5 (37:26:37) with a flow rate of 1.8 mL/min. The amount of LTB4 (Cayman Chemical, 20110) and LTC4 (Cayman Chemical, 20210) were calculated based on reference standards and the level of inhibition of LTB4 production induced by the test compounds was calculated relative to control samples. The results are provided in Table 2, where Compound No. refers to the compounds identified in Table 1.

[2] = test system: LTB4 production in MC/9 cells; experiment: MC/9 HPLC assay, inhibition of LTB4 production; format: cell-based; conditions: Mus musculus, MC9, Table 2 column 4, no concentration in head (1 μM according to b732), read-out: % Inhibition LTB4
Description: as §1

[3] = test system: LTB4 production in porcine or human whole blood; experiment: Whole blood HPLC assay, inhibition of LTB4 production; format: cell-based; conditions: 5 point curve, porcine or human whole blood (not specified)
Description: Porcine or human whole blood (1 mL) was pre-incubated with a series of concentrations of compound solubilized in DMSO for 30 minutes. Production of leukotrienes were stimulated with the addition of 20 μM calcium ionophore (A23187), diluted from a 4 mM DMSO stock in HBSS, and incubated at room temperature for 20 minutes. In porcine blood 20 μM arachidonic acid was added in addition to the calcium ionophore. The blood was centrifuged at 2,000 rpm for 15 minutes, and the plasma fraction removed for further processing. Plasma samples were diluted with 500 μL acidified water (HCl pH 3.0) and loaded onto C18 SEP-PAK columns (Canadian Lifesciences IS12000) for solid phase extraction. The leukotrienes were analyzed by HPLC using an ACE C18 column (4.5 mm×150 mm, 5 m) eluted with acetonitrile/methanol/water mixture with H3PO4, pH 3.5 (37:26:37) with a flow rate of 1.8 mL/min. The amount of LTB4 (Cayman Chemical, 20110) was calculated based on reference standards and the level of inhibition of LTB4 production induced by the test compounds was calculated relative to control samples. The results provided in Table 3 are IC50 values calculated based on a 5 point curve, where Compound No. refers to the compounds identified in Table 1.

[4] = target: T1, recombinant human leukotriene A4 hydrolase enzyme (Homo sapiens, UniProt P09960); experiment: Amino-peptidase assay, alanine-4-nitroanalide; format: biochemical; conditions: negative values = augmented peptidase activity, read-out: % Inhibition aminopeptidase-Alanine-4-nitroanalide activity of LTA4H (3 μM)
T1 construct: purchased Cayman Chemical 10007817
T1 sequence (P09960 1-611): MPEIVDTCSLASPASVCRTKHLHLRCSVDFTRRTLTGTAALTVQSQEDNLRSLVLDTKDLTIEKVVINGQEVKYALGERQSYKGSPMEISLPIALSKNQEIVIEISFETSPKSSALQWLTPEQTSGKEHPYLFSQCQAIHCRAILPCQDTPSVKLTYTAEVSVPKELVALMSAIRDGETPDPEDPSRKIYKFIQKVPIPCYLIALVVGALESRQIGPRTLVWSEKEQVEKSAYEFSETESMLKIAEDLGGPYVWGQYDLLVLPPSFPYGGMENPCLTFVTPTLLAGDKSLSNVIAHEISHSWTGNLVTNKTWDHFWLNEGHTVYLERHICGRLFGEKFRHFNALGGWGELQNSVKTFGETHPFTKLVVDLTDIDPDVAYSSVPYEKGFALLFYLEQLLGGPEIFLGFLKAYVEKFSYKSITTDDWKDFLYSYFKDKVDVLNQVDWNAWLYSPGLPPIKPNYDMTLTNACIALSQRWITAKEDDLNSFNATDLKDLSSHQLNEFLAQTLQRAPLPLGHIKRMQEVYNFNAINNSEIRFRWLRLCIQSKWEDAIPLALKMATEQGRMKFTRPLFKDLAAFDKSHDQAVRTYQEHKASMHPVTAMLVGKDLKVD
Description: A series of compound concentrations were pre-incubated in the absence of light with 0.5 μg of recombinant human leukotriene A4 hydrolase enzyme (Cayman Chemical 10007817) in 50 μL assay buffer (50 mM Tris-HCl, 100 mM KCl). The reaction was stimulated by adding 50 μL 6 mM alanine-4-nitroanilide (Sigma Aldrich A9325) in assay buffer. The amount of amino-peptidase activity was measured by determining the change in absorbance at 405 nm due to 4-nitroanaline production and comparing the rate of change to a reference standard (Sigma Aldrich 185310). Amino-peptidase activity was compared to control samples and the level of inhibition was calculated. Compounds that augment peptidase activity are represented by negative values.

Structure (SMILES)	inhibition at 1 µM [1] [%]	inhibition at 1 µM [2] [%]	IC50 [3] [µM]	inhibition at 3 µM [1] [%]	inhibition at 3 µM [4] [%]
CCC(O)(CCc1ccc(Oc2nc3ccccc3s2)c(C(F)(F)F)c1)C(F)(F)F (stereo not shown) [Compound 155, 1-[4-(1,3-benzothiazol-2-yloxy)-3-(trifluoromethyl)-phenyl]-3-(trifluoromethyl)-pentan-3-ol]	< 10	10 to 30	> 10		
COc1cc(C(O)C(F)(F)F)ccc1Oc1nc2ccccc2s1 (stereo not shown) [Compound 137, 1-[4-(1,3-benzothiazol-2-yloxy)-3-methoxyphenyl]-2,2,2-trifluoroethanol]		10 to 30	> 10	50 to 70	
COc1cc(C(C)(O)C(F)(F)F)ccc1OCc1ccc2ccccc2n1 (stereo not shown) [Compound 199, 1,1,1-trifluoro-2-[3-methoxy-4-(quinolin-2-ylmethoxy)phenyl]propan-2-ol]			> 10	30 to 50	
CCC(O)(CCc1ccc(Oc2nc3ccc(S(C)(=O)=O)cc3s2)c(OC)c1)C(F)(F)F (stereo not shown) [Compound 106, 1-{3-methoxy-4-[(6-methylsulfonyl-1,3-benzothiazol-2-yl)oxy]phenyl}-3-(trifluoromethyl)pentan-3-ol]	10 to 30	10 to 30	> 10	30 to 50	
COc1cc(C(C)(O)C(F)(F)F)ccc1Oc1nc2ccccc2s1 (stereo not shown) [Compound 173, 2-[4-(1,3-benzothiazol-2-yloxy)-3-methoxyphenyl]-1,1,1-trifluoropropan-2-ol]				30 to 50	0 to 50
CC(O)(c1ccc(Oc2nc3ccccc3s2)cc1)C(F)(F)F (stereo not shown) [Compound 163, 2-[4-(1,3-benzothiazol-2-yloxy)phenyl]-1,1,1-trifluoropropan-2-ol]			> 10	10 to 30	
CCC(O)(CCc1ccc(OCc2ccc3ccccc3n2)cc1)C(F)(F)F (stereo not shown) [Compound 185, 1-[4-(quinolin-2-ylmethoxy)-phenyl]-3-(trifluoromethyl)-pentan-3-ol]			0.1 to 1	70 to 90	
CCC(O)(CCc1ccc(Oc2nc3ccccc3s2)c(OC(C)C)c1)C(F)(F)F (stereo not shown) [Compound 115, 1-[4-(1,3-benzothiazol-2-yloxy)-3-(iso-propyloxy)phenyl]-3-(trifluoromethyl)pentan-3-ol]	< 10	< 10	> 10	< 10	
COc1cc(C(O)C(F)(F)F)ccc1Oc1nc2c(SC)cccc2s1 (stereo not shown) [Compound 139, 2,2,2-trifluoro-1-(3-methoxy-4-{[4-(methylsulfanyl)-1,3-benzothiazol-2-yl]oxy}phenyl)ethanol]			1 to 10	> 90	
CCC(O)(CCc1ccc(OCc2ccc3ccccc3n2)c(OC)c1)C(F)(F)F (stereo not shown) [Compound 198]			0.1 to 1	30 to 50	
CC(O)(c1ccc(OCc2ccc3ccccc3n2)cc1)C(F)(F)F (stereo not shown) [Compound 197, 1,1,1-trifluoro-2-[4-(quinolin-2-ylmethoxy)phenyl]propan-2-ol]			0.1 to 1	> 90	
COc1cc(CCC(C)(O)c2ccccc2)ccc1Oc1nc2ccccc2o1 (stereo not shown) [Compound 128, 4-[4-(1,3-benzoxazol-2-yloxy)-3-methoxyphenyl]-2-phenylbutan-2-ol]	< 10	< 10		< 10	< 25
CCC(O)(CCc1ccc(Oc2nc3ccccc3s2)c(OCC2CC2)c1)C(F)(F)F (stereo not shown) [Compound 117, 1-[4-(1,3-benzothiazol-2-yloxy)-3-(cyclopropyl-methoxy)-phenyl]-3-(trifluoromethyl)-pentan-3-ol]	30 to 50	70 to 90	> 10		
CC(O)c1ccc(Oc2nc3c(F)cc(F)cc3s2)cc1 (stereo not shown) [Compound 180, 1-{4-[(4,6-difluoro-1,3-benzothiazol-2-yl)oxy]phenyl}ethanol]				< 10	50 to 75
COc1cc(CCC(C)(O)c2ccccc2)ccc1Oc1nc2ccccc2s1 (stereo not shown) [Compound 123, 4-[4-(1,3-benzothiazol-2-yloxy)-3-methoxyphenyl]-2-(phenyl)butan-2-ol]	10 to 30	50 to 70			25 to 50
CCNC(c1ccc(Oc2nc3ccccc3s2)c(OC)c1)C(F)(F)F (stereo not shown) [Compound 138, 1-[4-(1,3-benzothiazol-2-yloxy)-3-methoxyphenyl]-N-ethyl-2,2,2-trifluoroethanamine]	30 to 50	10 to 30	1 to 10	70 to 90	
CCC(O)(CCc1ccc(Oc2nc3ccccc3s2)c(F)c1)C(F)(F)F (stereo not shown) [Compound 154, 1-[4-(1,3-benzothiazol-2-yloxy)-3-fluorophenyl]-3-(trifluoromethyl)pentan-3-ol]	30 to 50	50 to 70		< 10	> 75
CCC(O)(CCc1ccc(Oc2nc3ccccc3n2C)c(OC)c1)C(F)(F)F (stereo not shown) [Compound 105, 1-[4-(1-methyl-1H-benzimidazol-2-yloxy)-3-methoxyphenyl]-3-(trifluoromethyl)pentan-3-ol]	30 to 50			70 to 90	75
O=C(O)C1CCCN1Cc1ccc(Oc2nc3ccccc3s2)cc1 (stereo not shown) [Compound 165, 1-[4-(1,3-benzothiazol-2-yloxy)benzyl]pyrrolidine-2-carboxylic acid]				< 10	50 to 75
CCOc1cc(CCC(O)(CC)C(F)(F)F)ccc1Oc1nc2ccccc2s1 (stereo not shown) [Compound 121, 1-[4-(1,3-benzothiazol-2-yloxy)-3-ethoxyphenyl]-3-(trifluoromethyl)pentan-3-ol]	50 to 70	50 to 70			0 to 50
CCC(=O)CCc1ccc(Oc2nc3ccccc3o2)c(OC)c1 [Compound 102, 1-[4-(1,3-benzoxazol-2-yloxy)-3-methoxyphenyl]pentan-3-one]	10 to 30	> 90			0 to 50
CCC(O)(CCc1ccc(Oc2nc3ccc(OC)cc3s2)c(OC)c1)C(F)(F)F (stereo not shown) [Compound 109, 1-{4-[(6-methoxy-1,3-benzothiazol-2-yl)oxy]-3-methoxyphenyl}-3-(trifluoromethyl)pentan-3-ol]	50 to 70	70 to 90			0 to 50
CC(O)c1ccc(Oc2nc3ccccc3s2)cc1 (stereo not shown) [Compound 160, 1-[4-(1,3-benzothiazol-2-yloxy)phenyl]ethanol]			> 10	< 10	
